Paper PMC9405216, “Antimicrobial and Cytotoxic Cyathane-Xylosides from Cultures of the Basidiomycete Dentipellis fragilis” (Antibiotics, 2022)
In brackets after ≈: the same amount, converted by molar mass. Where two headings read alike, the source gives them in different places. Marks after values point to notes of the source that are not given here.

What was measured:
Assay type in all cases: cell-based
[1] = test system: L929 (ACC2) mouse fibroblasts; experiment: MTT cytotoxicity test, L929; conditions: five days incubation, n.c. = no cytotoxicity
Excerpt: (§1) A panel of mammalian cell lines was used to determine the cytotoxicity of the compounds following a previously published protocol. The assay was initially performed using the sensitive cell lines KB3.1 (human endocervical adenocarcinoma) and L929 (mouse fibroblasts). Active compounds were further tested using the cell lines MCF-7 (human breast adenocarcinoma), PC-3 (human prostate adenocarcinoma), SKOV-3 (ovarian carcinoma), A549 (human lung carcinoma), and A431 (human squamous cell carcinomas) (Table 6). The cell lines A549, KB 3.1, and L929 were cultured in DMEM (Gibco, provided by Thermo Fisher Scientific), PC-3 in F12-K (Gibco) and MC-7, and SKOV-3 and A431 in RPMI (Gibco). With the exception of A549, all cell lines were supplemented with 10% bovine serum (Gibco). All cell lines were cultured at 37 °C. The L929 and KB 3.1 cell lines were cultivated under an atmosphere of 10% (v/v) carbon dioxide. Cytotoxicity tests were then carried out using MTT (3-(4,5-dimethylthiazol-2-yl)-2,5-diphenyltetrazolium bromide) in 96-well microtiter plates. Serial dilutions of the compounds (60 µL aliquots, each with an initial concentration of 1 mg/mL) were added into 120 µL aliquots of cell suspension (50000 cells/mL) in the 96-well plates. These were incubated for five days, after which an MTT assay was performed. The absorbance was taken at 590 nm using an Elisa plate reader (Victor, Überlingen, Germany). The half-maximal inhibitory concentration (IC50), the concentration at which cell growth inhibition was 50% of the control, was calculated as described elsewhere.

[2] = test system: Mucor hiemalis (DSM 2656); experiment: Serial dilution MIC assay, Mucor hiemalis; conditions: overnight incubation, n.i. = no inhibition
Procedure: (§2) Serial dilution assays in 96-well microtiter plates were performed according to our standard protocol in order to determine the minimum inhibitory concentrations (MICs) of pure isolated compounds against different microorganisms. Essentially, aliquots of compounds 1–5 and 9 (20 µL), each with an initial concentration of 1 mg/mL, were diluted in MeOH together with the respective microorganisms to concentrations ranging between 67 µg/mL and 0.5 µg/mL in the 96-well plates, followed by overnight incubation. The MIC was then determined as the lowest concentration at which no growth of the test organism was observed. A broad spectrum of clinically approved test pathogens and sensitivity indicator strains were used in the assays (Table 4 and Table 5). Ciprofloxacin, oxytetracycline, kanamycin, and gentamycin were used as positive controls against bacterial pathogens, while nystatin was used as the positive control against fungi.

[3] = test system: Schizosaccharomyces pombe (DSM 70572); experiment: Serial dilution MIC assay, Schizosaccharomyces pombe; conditions: serial dilution 67-0.5 µg/mL, overnight incubation, n.i. = no inhibition
Procedure: as §2

[4] = test system: Pichia anomala (DSM 6766); experiment: Serial dilution MIC assay, Pichia anomala; conditions: serial dilution 67-0.5 µg/mL, overnight incubation, n.i. = no inhibition
Procedure: as §2

[5] = test system: Chromobacterium violaceum (DSM 30191); experiment: Serial dilution MIC assay, Chromobacterium violaceum; conditions: overnight incubation, n.i. = no inhibition
Procedure: as §2

[6] = test system: Bacillus subtilis (DSM 10); experiment: Serial dilution MIC assay, Bacillus subtilis; conditions: overnight incubation, n.i. = no inhibition
Procedure: as §2

[7] = test system: Candida albicans (DSM 1665); experiment: Serial dilution MIC assay, Candida albicans; conditions: serial dilution 67-0.5 µg/mL, overnight incubation, n.i. = no inhibition
Procedure: as §2

[8] = test system: Escherichia coli (DSM 1116); experiment: Serial dilution MIC assay, Escherichia coli; conditions: overnight incubation, n.i. = no inhibition
Procedure: as §2

[9] = test system: Actinobacter baumannii (DSM 30008); experiment: Serial dilution MIC assay, Actinobacter baumannii; conditions: serial dilution 67-0.5 µg/mL, overnight incubation, n.i. = no inhibition
Procedure: as §2

[10] = test system: Pseudomonas aeruginosa (DSM PA14); experiment: Serial dilution MIC assay, Pseudomonas aeruginosa; conditions: serial dilution 67-0.5 µg/mL, overnight incubation, n.i. = no inhibition
Procedure: as §2

[11] = test system: Mycolicibacterium smegmatis (ATCC 700084); experiment: Serial dilution MIC assay, Mycolicibacterium smegmatis; conditions: serial dilution 67-0.5 µg/mL, overnight incubation, n.i. = no inhibition
Procedure: as §2

[12] = test system: KB3.1 (ACC158) human endocervical adenocarcinoma; experiment: MTT cytotoxicity test, KB3.1; conditions: KB3.1 human endocervical adenocarcinoma, five days incubation, n.c. = no cytotoxicity
Excerpt: as §1

[13] = test system: Staphylococcus aureus (DSM 346); experiment: Serial dilution MIC assay, Staphylococcus aureus; conditions: overnight incubation, n.i. = no inhibition
Procedure: as §2

[14] = test system: Rhodotorula glutinis (DSM 10134); experiment: Serial dilution MIC assay, Rhodotorula glutinis; conditions: overnight incubation, n.i. = no inhibition
Procedure: as §2

[15] = test system: tested microorganisms (bacteria and fungi); experiment: Serial dilution MIC assays, whole panel of tested strains; conditions: all bacteria and fungi of Tables 4 and 5, result in words
Procedure: as §2

[16] = DSM2656, serial dilution 67-0.5 µg/mL, read-out: MIC
[17] = DSM30191, serial dilution 67-0.5 µg/mL, read-out: MIC
[18] = DSM10, serial dilution 67-0.5 µg/mL, read-out: MIC
[19] = DSM346, serial dilution 67-0.5 µg/mL, read-out: MIC
[20] = DSM10134, serial dilution 67-0.5 µg/mL, read-out: MIC

MIC [3]	MIC [4]	MIC [6, 18] [µg/mL]	MIC [7]	MIC ([8]; serial dilution 67-0.5 µg/mL)	MIC [9]	MIC [10]	MIC [11]	MIC [13, 19] [µg/mL]	MIC ([5]; serial dilution 67-0.5 µg/mL)	SMILES	IC50 ([1]; 120 h, read-out: IC50) [µM]	IC50 [1]	IC50 ([12]; KB 3-1, 120 h, read-out: IC50) [µM]	IC50 [12]	further results
n.i.	n.i.	16.7 (≈ 38.6 µM)	n.i.	n.i.	n.i.	n.i.	n.i.	16.7 (≈ 38.6 µM)		CC(C)C1=C2[C@H]3CC=C(C=O)[C@@H]4[C@H](O[C@@H]5OC[C@@H](O)[C@H](O)[C@@]54O)[C@]3(C)CC[C@@]2(C)CC1 [Compound 5, dentifragilin E]	34.7	weak activities	15.7	weak activities	MIC [2, 16]: 33.3 µg/mL (≈ 77 µM); MIC [5, 17]: 66.6 µg/mL (≈ 154 µM); MIC [14, 20]: 66.6 µg/mL (≈ 154 µM)
							1.7 ^b µg/mL			NC[C@H]1O[C@H](O[C@H]2[C@H](O)[C@@H](O[C@H]3O[C@H](CO)[C@@H](O)[C@H](N)[C@H]3O)[C@H](N)C[C@@H]2N)[C@H](O)[C@@H](O)[C@@H]1O [kanamycin, reference compound]					
		4.2 (≈ 9.12 µM)						0.2 (≈ 0.434 µM)		CN(C)[C@@H]1C(O)=C(C(N)=O)C(=O)[C@@]2(O)C(O)=C3C(=O)c4c(O)cccc4[C@@](C)(O)[C@H]3[C@H](O)[C@@H]12 [oxytetracycline, reference compound]					MIC [5, 17]: 0.8 µg/mL (≈ 1.74 µM); MIC ([8]; DSM1116, serial dilution 67-0.5 µg/mL, read-out: MIC): 3.3 µg/mL (≈ 7.17 µM)

Further lines, the molecule ahead of its results:

SMILES	MIC [3]	MIC [4]	MIC [6, 18] [µg/mL]	MIC [7]	MIC ([8]; serial dilution 67-0.5 µg/mL)	MIC [9]	MIC [10]	MIC [11]	MIC [13, 19] [µg/mL]	MIC ([5]; serial dilution 67-0.5 µg/mL)	IC50 ([1]; 120 h, read-out: IC50) [µM]	IC50 [1]	IC50 ([12]; KB 3-1, 120 h, read-out: IC50) [µM]	IC50 [12]	further results
CC(C)C1=C2[C@H]3CC[C@H](CO)[C@@H]4[C@H](O[C@@H]5OC[C@@H](O)[C@H](O)[C@@]54O)[C@]3(C)CC[C@@]2(C)CC1=O [Compound 4, dentifragilin D]	n.i.	n.i.	16.7 (≈ 37.1 µM)	n.i.	n.i.	n.i.	n.i.	n.i.	33.3 (≈ 73.9 µM)	n.i.	48.9	weak activities	42.2	weak activities	MIC [2, 16]: 66.6 µg/mL (≈ 148 µM); MIC [14, 20]: 66.6 µg/mL (≈ 148 µM)
CC(C)C1=C2[C@H]3CC=C4[C@@H]5O[C@@H]6[C@@]7(O)[C@@H](OC[C@]6(O)O5)O[C@@H]([C@@H]47)[C@]3(C)CC[C@@]2(C)CC1=O [Compound 2, dentifragilin B]	n.i.	n.i.	66.6 (≈ 150 µM)	n.i.	n.i.	n.i.	n.i.	n.i.	66.6 (≈ 150 µM)	n.i.		no activity	51		MIC ([2]; serial dilution 67-0.5 µg/mL): n.i.; MIC ([14]; serial dilution 67-0.5 µg/mL): n.i.
CO[C@H]1O[C@@]2(O)[C@H](O)CO[C@H]3O[C@H]4[C@@H]([C@@H]1CC[C@@H]1C5=C(C(C)C)CC[C@]5(C)CC[C@]14C)[C@]32O [Compound 7, dentifragilin G]											14.9	weak activities	10.3	weak activities	
CC(C)C1=C2[C@H]3CC[C@@H]4CO[C@@]5(O)[C@H](O)CO[C@H]6O[C@@H]([C@@H]4[C@]65O)[C@]3(C)CC[C@@]2(C)CC1=O [Compound 3, dentifragilin C]	n.i.	n.i.		n.i.	n.i.	n.i.	n.i.	n.i.		n.i.		not cytotoxic		not cytotoxic	MIC ([2]; serial dilution 67-0.5 µg/mL): n.i.; MIC ([6]; serial dilution 67-0.5 µg/mL): n.i.; activity against all tested microorganisms [15]: devoid of any activity; MIC ([13]; serial dilution 67-0.5 µg/mL): n.i.; MIC ([14]; serial dilution 67-0.5 µg/mL): n.i.
